{
  "source": "patent US20110251135A1",
  "about": "“INHIBITORS OF PERITONEAL SEEDING OF CANCER CELLS” (University of Utah Research Foundation, priority 2008, published 2011)",
  "key": {"[1]": {"tested_on": "293-COX-2 cells", "test": "Apoptosis of 293-COX-2 cells with or without ponasterone induction of COX-2", "assay_type": "cell-based", "settings": "8 hours of exposure", "method": "The transiently suspended cells were lysed and allowed to bind to DNA oligonucleotides, containing the NF-κB consensus binding site, that were immobilized to 96-well plates. NF-κB protein bound to the oligonucleotides was detected by an antibody to the p65 subunit that only recognized p65 that is bound to DNA. The positive control was HeLa cells that were stimulated with TNFα. A control was performed using excess free NF-κB oligonucleotides (Competitor). […] NF-κB binding activity was determined by the TransAM assay as in FIG. 5A. […] The data shown represent typical results of three separate experiments. […] An immunoblot for COX-2 was performed.\nDLD-1, HCT-116, and HT-29 colon cancer cell lines were obtained from the ATCC collection and were cultured in Dulbecco's Modification of Eagle's Medium (DMEM) supplemented with 10% fetal bovine serum, glutamine, penicillin, and streptomycin. […]\nSingle cell suspensions were plated at 100,000 cells per well in 24-well plates in media containing DMSO, BAY 11-7082, BAY 11-7085, or MG-132 for 8-24 hours in an incubator. […] 400 μL of binding buffer was added to each tube and the cells were analyzed by flow cytometry immediately. The percent of apoptosis was determined as the percent of annexin V-positive, propidium iodide-negative cells of the total cells counted. […]"}, "[2]": {"tested_on": "HT-29 cells", "test": "Soft agar colony formation assay", "assay_type": "cell-based, human", "settings": "10 μM for 6 days", "method": "(§1) DLD-1, HCT-116, and HT-29 cells were cultured for 6 days in soft agar in the presence of DMSO (control), 10 μM BAY 11-7082, or 10 μM BAY 11-7085. The data points represent the means of colony counts per field (20×) performed in 5 different regions of the culture dishes. The data shown represent a typical result of two separate experiments. FIG. 2B and FIG. 2C are graphs that show athymic mice received subcutaneous injections of HT-29 (FIG. B) or HCT-116 (FIG. C) cells, followed by […] of BAY 11-7085 (dark bars) or DMSO (white bars) intraperitoneally twice weekly. The bars represent the 25-75% ranges of the tumor volumes and the horizontal lines in the bars are the medians. Using the Kruskal-Wallace statistical test to compare the median tumor volumes between BAY 11-7085 and DMSO yielded a p-value of 0.005 for HT-29 cells but >0.05 for HCT-116 cells.\nAnchorage-independent cell growth is a hallmark of cancer cells and is a good correlation to tumorigencity in vivo. Therefore, the effects of BAY 11-7082 and BAY 11-7085 were examined on colon cancer cell growth using the soft agar colony formation assay."}, "[3]": {"tested_on": "HT-29 xenografts", "test": "Subcutaneous colon cancer xenograft in athymic mice", "assay_type": "in vivo, mouse", "method": "as §1\nHT-29 and HCT-116 cells were harvested in 0.25% trypsin-PBS-EDTA, washed once in media and PBS, and resuspended in PBS at 1 million cells per 200 μL. One million cells were injected either subcutaneously in the backs or intraperitoneally in 5 week old female nu/nu athymic mice (Charles River Labs). For the mice with subcutaneous tumors, the tumors were allowed to establish themselves for 10 days after which they were randomized to BAY 11-7085 or DMSO. For the mice with intraperitoneal tumors, the mice received DMSO or BAY 11-7085 (5 mg/kg) 24 hours before the cancer cells were injected intraperitoneally. […] Subcutaneous tumor sizes were determined by measuring the length and width with calipers. These studies were approved by the University of Utah Institutional Review Board and Institutional Animal Care and Use Committee and performed in the Animal Resource Center. Mice were euthanized when they experienced a greater than 10% loss in body weight or if they appeared ill. Post-mortem examinations included sectioning of kidney, lung, and liver tissues which were stained with hematoxylin and eosin followed by examination for tissue toxicity/damage by an experienced mouse pathologist (E.J.E.) who was blinded to therapy.\nHCT-116 and HT-29 cell lines were used to generate subcutaneous tumors in athymic female mice. The mice were subsequently randomized to be treated with vehicle (DMSO) alone or BAY 11-7085 […] twice weekly for 28 days."}, "[4]": {"tested_on": "NF-κB", "test": "NF-κB electrophoretic mobility shift assay (EMSA), nuclear lysates of treated HT-29 cells", "assay_type": "cell-based, human", "settings": "10 μM, 3 and 6 hour incubations"}, "[5]": {"tested_on": "HT-29 cells", "test": "One-hour cell adhesion assay (crystal violet)", "assay_type": "cell-based, human", "settings": "adherent HT-29 pretreated for three days with various concentrations, then one-hour adhesion assay", "text": "FIG. 3 is a group of graphs that show NF-κB inhibitors cause apoptosis of colon cancer cells. […] The data points represent the average percent of annexin V-positive, propidium iodide-negative cells (of the total cells counted) from triplicate experiments. The error bars represent the standard error of the means. […] The results shown are a graphic representation of individual flow cytometry results expressed as the percentage of cells that were annexin V-positive of those that excluded propidium iodide. […] An immunoblot of the lysates for cleaved PARP was performed. Each lane represents equal total protein concentrations. […] The cells were allowed to adhere to plastic dishes for 1 hour after which they were washed gently in PBS and stained with crystal violet. The crystal violet stained cells were solubilized in deoxycholate and the absorbance detected in a spectrophotometer at 590 nm. The adherent cells were expressed as a fraction of the controls. Each data point represents the average of triplicate experiments and the error bars the standard errors of the means.\nEven though BAY 11-7085 induced a loss of cell adhesion, it was important to show whether HT-29 cells were actually susceptible to anoikis."}},
  "data": [
    {"smiles": "CC(C)(C)c1ccc(S(=O)(=O)/C=C/C#N)cc1", "note": "[BAY 11-7085, (2E)-3-[4-(tertiarybutylphenyl)sulfonyl]-2-propenenitrile]", "values": [
      {"measurement": "apoptosis", "setting": "[1]; ponasterone-induced 293-COX-2 cells (1 μg/mL, 48 hours)", "value": "marked increase in BAY 11-7085-induced apoptosis"},
      {"measurement": "apoptosis", "setting": "[1]; uninduced 293-COX-2 cells", "value": "no increase in apoptosis"},
      {"measurement": "anchorage-independent proliferation", "setting": "[2]", "value": "significantly inhibited"},
      {"measurement": "tumor volumes vs control group", "setting": "[3]; HT-29 subcutaneous xenografts, BAY 11-7085 1 mg/kg twice weekly for 28 days vs DMSO", "value": "statistically significant overall reduction in the tumor volumes"},
      {"measurement": "colon cancer xenograft growth", "setting": "[3]; athymic mice, compound alone, cell line not given", "value": "inhibit colon cancer xenograft growth"},
      {"measurement": "inhibition of NF-κB activity (EMSA)", "setting": "[4]", "value": "more profound inhibition of NF-κB activity"},
      {"measurement": "cell adhesion", "setting": "[5]", "value": "significant and rapid inhibition of cell adhesion at high concentrations"}
    ]}
  ]
}
